One series has as its system SW620 (colon cancer). The series can be described thus: SRB cytotoxicity assay, SW620. Type of series: cell-based. The following applies: Homo sapiens, SW-620, 48 h incubation, mean ± SEM of 3 independent experiments. Put shortly:
(§1)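 Cells in DMEM were seeded at 3 × 10^4 cells/mL and preincubated 24 h at 37 °C, 5% CO2. Compounds were added in medium at 1% DMSO for 48 h. Cell density was read by sulforhodamine B staining, with IC50 by probit analysis as the mean of three independent screens.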

For the next series, the system named is PC3 (prostate cancer). The series can be described thus: SRB cytotoxicity assay, PC3. The following applies: Homo sapiens, 48 h incubation, mean ± SEM of 3 independent experiments. Type of series: cell-based. Put shortly:
as §1

The nature of series [1]: Cytotoxicity on normal mesenchymal stem cells. It is filed as cell-based. The following applies: human bone marrow-derived mesenchymal stem cells; mean ± SEM; read-out: Cytotoxicity (IC50) MSCs.
In another series the test system is U937 cells. Briefly: Annexin V-FITC/PI apoptosis assay. It is filed as cell-based, human. The following applies: 24 h. Here is the method: The Annexin V-FITC/PI dual staining assay was used to determine the percentage of apoptotic cells. U937 cells (5 × 10^5/mL per well) were plated in 6-well culture plates and allowed to grow for 24 h. In our first experiment, we examined the effects of 4f, 4h, 4n, 4o, 4p, and PAC-1 on apoptosis at 50 µM. In the second experiment, we examined the dose-dependent effect of 4o at 5, 10, and 30 µM and PAC-1 at 30 µM on apoptosis. The cells were treated with compounds for 24 h, and then harvested. The harvested cells were washed twice with ice-cold PBS and incubated in the dark at room temperature in […] of 1 × binding buffer containing 1 µL Annexin V-FITC and […] PI. After 15 min incubation, cells were analyzed for percentage undergoing apoptosis using a FACScalibur flow cytometer (BD Biosciences). The data were processed using Cell Quest Pro software (BD Biosciences).
Figure 5 Apoptosis (Annexin V/PI) analysis of cells after treatment with some compounds. U937 cells were treated with compounds (50 µM) for 24 h. The harvested cells were incubated with Annexin V-FITC and PI and analyzed by using flow cytometry. Ten thousand cells were acquired (n = 3). UN untreated, VH vehicle (DMSO. 0.1%). Representative dot plots (A). Live cells, left down in dot plot. Early apoptotic cells, right down. Necrotic cells, left up, Late apoptotic cells, right up. Bar graph of late apoptotic cells (B). p values were calculated using one-way ANOVA in GraphPad Software (San Diego, CA, USA). *p < 0.01 vs VH control. TEXT PRINTED IN THE PICTURE: (A) PAC-1: 10.40%; 29.30%; 12.70% | (A) 4f: 0.52%; 6.05%; 5.41% | (A) 4h: 0.89%; 13.20%; 7.67% | (A) 4n: 0.44%; 6.83%; 5.73% | (A) 4o: 0.67%; 17.30%; 8.17% | (A) 4p: 1.60%; 13.00%; 5.86% DOUBTS OF THE COPYIST ABOUT THIS PICTURE: The quadrant percentages are in small italic print over the dot plots, so 3, 5, 6, 8 and 9 cannot always be told apart. All values given are best readings. / PAC-1: 10.40%, 29.30% and 12.70% are best readings (29.30 could be 28.30) / 4f: 0.52%, 6.05% and 5.41% are best readings (6.05 could be 6.06 or 8.05) / 4h: 0.89%, 13.20% and 7.67% are best readings (0.89 could be 0.86 or 0.69) / 4n: 0.44%, 6.83% and 5.73% are best readings (6.83 could be 6.63 or 6.88) / 4o: 0.67%, 17.30% and 8.17% are best readings (8.17 could be 6.17) / 4p: 1.60%, 13.00% and 5.86% are best readings (5.86 could be 5.88 or 5.66) / The picture prints no measure for the percentages; only their quadrant position tells them apart. They are listed upper left, upper right, lower right. / The plots UN (0.70%, 2.31%, 3.03%) and VH (1.75%, 2.43%, 3.57%) are controls, not substances, and are left out of the lines.
Figure 6 Apoptosis (Annexin V/PI) analysis of cells after treatment with different concentrations of compound 4o. U937 cells were treated with compound 4o at 5, 10 and 30 µM or PAC-1 (30 µM) for 24 h. The harvested cells were incubated with Annexin V-FITC and PI and analyzed by using flow cytometry. Ten thousand cells were acquired (n = 3). UN untreated, VH vehicle (DMSO. 0.1%). Representative dot plots (A). Live cells, left down in dot plot. Early apoptotic cells, right down. Necrotic cells, left up, Late apoptotic cells, right up. Bar graph of late apoptotic cells (B). p values were calculated using one-way ANOVA in GraphPad Software (San Diego, CA, USA). *p < 0.01 vs VH control.

The subject of series [2] is SW620, PC-3, and NCI-H23 cell lines. The series can be described thus: Cytotoxicity, summary statements over three human cancer cell lines. Type of series: cell-based. The following applies: SW620, PC-3, NCI-H23. From the text: Three human cancer cell lines: colon cancer (SW620), prostate cancer (PC3), and lung cancer (NCI-H23) were used for sceening the cytotoxicity of the compounds. The cancer cells were purchased from American Type Culture Collection (Manassas, VA, USA). Other reagents/media for cell culture were obtained from GIBCO (Grand Island, New York, USA). The testing cancer cells were culture in Dulbecco’s Modified Eagle Medium until confluence. Then, they were trypsinized and suspended at the level of 3 × 10^4 cells/mL of cell culture medium. On day 0, cancer cells were seeded at a volume of 180 µL/well of 96-well plates and incubated for 24 h at 37 °C in a 5% CO2 incubator. On day 1, 20 µL of various concentrations of testing compounds were added to each well of the 96-well plates. Chemicals were dissolved in dimethyl sulfoxide (DMSO, stock) and diluted in culture medium (1% DMSO) before adding to the culture. After 48 h incubation, the sulforhodamine B assay was used for cell density determination with slight modifications[22]–[26]. The Probits were used for the calculation of IC50 values. The reported IC50 were the averages of three independent screening (SD ≤ 10%)[27].
Overally, 5-fluorinated compounds (4i–p and 5d–f) were slightly more cytotoxic than non-fluorinated ones (4a–h, 5a–c). […]

The term IC50 denotes the concentration that inhibits the measured activity by half.

On to `COc1ccc(/C=N/NC(=O)CN2C(=O)Cc3cc(F)ccc32)c(O)c1` [Compound 4o, (E)-N'-(2-Hydroxy-4-methoxybenzylidene)-2-(5-fluoro-2-oxoindolin-1-yl)acetohydrazide], for which the IC50 was 1.88 ± 0.02 µM in the series with SW620 (colon cancer), 1.83 ± 0.07 µM in the series with PC3 (prostate cancer) and 12.8 ± 0.71 µM in series [1]. Further, in the series on U937 cells (U937, 5 µM), the “Late apoptotic cell population, dose dependence” value is on record as “increased late apoptotic cell population”. For the same compound, in the series on U937 cells (U937, 50 µM), the “Apoptotic effects compared among the representative compounds” value was “more prominent”. Moreover, the “Induction of apoptosis (Annexin V-FITC/PI)” value in the series with U937 cells (U937, 50 µM) is “induced early, and more substantially, late apoptosis”. In series [2], the “IC50 values relative to PAC-1” value was “three- to five-fold lower”.
